Laboratory results reported in paper PMC7118351 (BMB Reports, 2020).
Structures can show the parent of a compound that is named as a salt. Where two headings read alike, the source gives them in different places.

Legend:
Ebola trVLP replication = assay: microbe, parasite or virus in culture; assay type: cell-based, Ebola virus (EBOV)
in vitro [1] = conditions: human
EBOV GP = assay type: cell-based, Ebola virus (EBOV)
VP40 = assay type: cell-based, Ebola virus (EBOV)
[2] = tested on: tetracistronic minigenome RNA incorporated into trVLPs; assay type: cell-based, Ebola virus (EBOV)
dengue virus = assay type: cell-based
rhinovirus = assay type: cell-based
HEK293T cells = conditions: human
in vitro [3] = conditions: human; remark: listed apart in the source

## CN1CCCN(C(c2ccccc2)c2ccc(Cl)cc2)CC1 (centres unmarked) [Homochlorcyclizine]
Ebola trVLP replication
  SI (selectivity index, ratio of CC50 to EC50): > 37.1
Ebola trVLP replication; Zaire ebolavirus, HEK-293T
  EC50: 0.8 µM
In vitro [1]
  CC50: > 30 µM

## CN1[C@@H]2CC[C@H]1C[C@@H](OC(c1ccccc1)c1ccccc1)C2 [Benztropine mesylate]
In vitro [1]
  CC50: > 30 µM

## CN(C)CCCN1c2ccccc2Sc2ccc(C(F)(F)F)cc21 [Triflupromazine]
Ebola trVLP replication
  SI (selectivity index, ratio of CC50 to EC50): > 23.8
Ebola trVLP replication; Zaire ebolavirus, HEK-293T
  EC50: 1.4 ± 0.5 µM
In vitro [1]
  CC50: > 30 µM

## Cc1[nH]c(/C=C2\C(=O)Nc3ccc(S(=O)(=O)N(C)c4cccc(Cl)c4)cc32)c(C)c1C(=O)N1CCN(C)CC1 [SU11274]
Ebola trVLP replication
  SI (selectivity index, ratio of CC50 to EC50): > 13.6
Ebola trVLP replication; Zaire ebolavirus, HEK-293T
  EC50: 2.6 ± 1.4 µM
In vitro [1]
  CC50: > 30 µM

## CNCCCC12CCC(c3ccccc31)c1ccccc12 [Maprotiline]
In vitro [1]
  CC50: 25.1 ± 2.1 µM

## O=C1NCCN1CCN1CCC(c2cn(-c3ccc(F)cc3)c3ccc(Cl)cc23)CC1 [Sertindole]
Ebola trVLP replication
  SI (selectivity index, ratio of CC50 to EC50): > 45.8
EBOV GP
  reduction of the number of GP-positive spots: 84.7%
VP40
  VP40 protein level (Western blot): downregulated in a dose-dependent manner
[2]
  amount of negative-sense minigenome RNA incorporated into trVLPs: suppression of the amount of negative-sense minigenome RNA incorporated into trVLPs in a dose-dependent manner
Dengue virus
  viral inhibition in cells: no viral inhibition
rhinovirus
  viral inhibition in cells: no viral inhibition
HEK293T cells
  CC50: > 30 µM
In vitro [1]
  CC50: 23.1 µM
In vitro [3]
  CC50: 13.7 µM

## CN1CCN(C(c2ccccc2)c2ccc(Cl)cc2)CC1 (centres unmarked) [Chlorcyclizine]
Ebola trVLP replication
  SI (selectivity index, ratio of CC50 to EC50): > 17.0
Ebola trVLP replication; Zaire ebolavirus, HEK-293T
  EC50: 2.7 ± 2.2 µM
In vitro [1]
  CC50: > 30 µM

## OCCN1CCN(CCCN2c3ccccc3Sc3ccc(Cl)cc32)CC1 [Perphenazine]
Ebola trVLP replication
  SI (selectivity index, ratio of CC50 to EC50): 27.7 ± 9.2
Ebola trVLP replication; Zaire ebolavirus, HEK-293T
  EC50: 0.7 ± 0.2 µM
In vitro [1]
  CC50: 17.4 ± 0.6 µM

## CCCC(C(=O)OCCN(CC)CC)(c1ccccc1)c1ccccc1 [Proadifen]
Ebola trVLP replication
  SI (selectivity index, ratio of CC50 to EC50): > 11.6
Ebola trVLP replication; Zaire ebolavirus, HEK-293T
  EC50: 2.7 ± 0.7 µM
In vitro [1]
  CC50: > 30 µM

## CC(=O)c1ccc2c(c1)N(CCCN1CCC(CCO)CC1)c1ccccc1S2 [Piperacetazine]
Ebola trVLP replication
  SI (selectivity index, ratio of CC50 to EC50): 15.7 ± 4.6
Ebola trVLP replication; Zaire ebolavirus, HEK-293T
  EC50: 2 ± 0.6 µM
In vitro [1]
  CC50: 26.1 ± 5.5 µM

## CC(C)(N)C(=O)N[C@H](COCc1ccccc1)C(=O)N1CCC2(CC1)CN(S(C)(=O)=O)c1ccccc12 [Ibutamoren mesylate, ibutamoren mesylate]
Ebola trVLP replication
  EC50: < 0.4 µM
  S.I. (selectivity index): 222.8
  SI (selectivity index, ratio of CC50 to EC50): > 81.1
Ebola trVLP replication; Zaire ebolavirus, HEK-293T
  EC50: 0.2 µM
EBOV GP
  reduction of the number of GP-positive spots: 74.2%
VP40
  VP40 protein level (Western blot): downregulated in a dose-dependent manner
[2]
  amount of negative-sense minigenome RNA incorporated into trVLPs: suppression of the amount of negative-sense minigenome RNA incorporated into trVLPs in a dose-dependent manner
HEK293T cells
  CC50: > 30 µM
In vitro [3]
  CC50: 76.7 µM

## O=C(c1ccc(OCCN2CCCCC2)cc1)c1c(-c2ccc(O)cc2)sc2cc(O)ccc12 [Raloxifene, raloxifene hydrochloride]
Ebola trVLP replication
  SI (selectivity index, ratio of CC50 to EC50): 47.1 ± 2.2
EBOV GP
  reduction of the number of GP-positive spots: 69.1%
VP40
  VP40 protein level (Western blot): downregulated in a dose-dependent manner
[2]
  amount of negative-sense minigenome RNA incorporated into trVLPs: suppression of the amount of negative-sense minigenome RNA incorporated into trVLPs in a dose-dependent manner
Dengue virus
  viral inhibition in cells: no viral inhibition
rhinovirus
  viral inhibition in cells: no viral inhibition
HEK293T cells
  CC50: 25.6 ± 0.2 µM
In vitro [1]
  CC50: 13.9 µM
In vitro [3]
  CC50: 23.4 µM

## CN(C)C(=O)C(CCN1CCC(O)(c2ccc(Cl)cc2)CC1)(c1ccccc1)c1ccccc1 [Loperamide]
In vitro [1]
  CC50: > 30 µM

## NC(=O)c1nc(F)c[nH]c1=O [Hit T-705, 6-flouro-3-hydroxy-2-pyrazinecarboxamide]
Ebola trVLP replication
  SI (selectivity index, ratio of CC50 to EC50): > 13.0
Ebola trVLP replication; Zaire ebolavirus, HEK-293T
  EC50: 4.7 ± 3.1 µM
In vitro [1]
  CC50: > 90 µM

## NC(=O)c1ncn([C@@H]2O[C@H](CO)[C@@H](O)[C@H]2O)n1 [RBV, ribavirin]
Ebola trVLP replication
  EC50: 4.1 ± 2.1 µM
  SI (selectivity index, ratio of CC50 to EC50): > 16.3
EBOV GP
  reduction of the number of GP-positive spots: 62.5%
VP40
  VP40 protein level (Western blot): downregulated in a dose-dependent manner
HEK293T cells
  CC50: > 90 µM

## CN1[C@@H]2CC[C@H]1C[C@@H](OC(c1ccccc1)c1ccc(Cl)cc1)C2 (some centres unmarked) [Hit 3-CPMT, 3a-[(4-chlorophenyl)phenylmethoxy]tropane]
Ebola trVLP replication
  SI (selectivity index, ratio of CC50 to EC50): > 26.3
Ebola trVLP replication; Zaire ebolavirus, HEK-293T
  EC50: 1.3 ± 0.5 µM
In vitro [1]
  CC50: > 30 µM
